Results: paper PMC10988713 (FEBS Open Bio, 2024)

Legend:
RnMFE1 [1] = biological target: T1, RnMFE1 (Rattus norvegicus, UniProt P07896); experiment: stopped-flow NADH formation, kobs vs substrate; type: biochemical; conditions: 1 mM NAD+, pH 9.0, 50 mM Tris, 50 mM KCl, room temperature; coupled ECH and HAD reactions of the same enzyme
T1 construct: gene Ehhadh
Description: stopped-flow NADH formation, kobs vs substrate on RnMFE1

RnMFE1 [2] = biological target: T1, RnMFE1; experiment: stopped-flow NADH fluorescence, koff/kon; type: binding
Description: (§1) stopped-flow NADH fluorescence, koff/kon on RnMFE1

RnMFE1 [3] = biological target: T2, RnMFE1 (Rattus norvegicus, UniProt P07896, E123A); experiment: stopped-flow NADH fluorescence, koff/kon; type: binding
T2 construct: gene Ehhadh
Description: as §1

BCDE [4] = biological target: T3, BCDE (Rattus norvegicus, UniProt P07896); experiment: stopped-flow NADH fluorescence, koff/kon; type: binding
T3 construct: gene Ehhadh; truncated RnMFE1 from Ala260 (ASGQ) to the C-terminus, without domain A (ECH part); N-terminal His6 tag, E. coli BL21(DE3) pLysS
Description: stopped-flow NADH fluorescence, koff/kon on BCDE

HsHAD [5] = biological target: T4, HsHAD (Homo sapiens, UniProt Q16836); experiment: stopped-flow NADH fluorescence, koff/kon; type: binding
T4 construct: gene HADH; N-terminal His6 tag in pET28a, E. coli BL21(DE3) pLysS, dimer of 35 kDa subunits
T4 sequence (Q16836 13-314): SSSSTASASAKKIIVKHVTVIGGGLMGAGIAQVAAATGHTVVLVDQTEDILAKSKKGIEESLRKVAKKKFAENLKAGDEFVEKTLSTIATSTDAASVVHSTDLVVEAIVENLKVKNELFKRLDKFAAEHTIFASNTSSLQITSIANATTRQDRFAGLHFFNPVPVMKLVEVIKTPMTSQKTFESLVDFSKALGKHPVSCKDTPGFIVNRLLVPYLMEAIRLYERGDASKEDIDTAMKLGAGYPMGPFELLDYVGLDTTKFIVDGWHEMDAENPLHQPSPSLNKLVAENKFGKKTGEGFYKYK
Description: stopped-flow NADH fluorescence, koff/kon on HsHAD

HsHAD [6] = biological target: T4, HsHAD; experiment: stopped-flow tryptophan fluorescence, koff/kon; type: binding
Description: stopped-flow tryptophan fluorescence, koff/kon on HsHAD

RnMFE1 [7] = biological target: T1, RnMFE1; experiment: stopped-flow tryptophan fluorescence, koff/kon; type: binding
Description: (§2) stopped-flow tryptophan fluorescence, koff/kon on RnMFE1

RnMFE1 [8] = biological target: T2, RnMFE1; experiment: stopped-flow tryptophan fluorescence, koff/kon; type: binding
Description: as §2

BCDE [9] = biological target: T3, BCDE; experiment: stopped-flow tryptophan fluorescence, koff/kon; type: binding
Description: stopped-flow tryptophan fluorescence, koff/kon on BCDE

T1 sequence (P07896 whole entry): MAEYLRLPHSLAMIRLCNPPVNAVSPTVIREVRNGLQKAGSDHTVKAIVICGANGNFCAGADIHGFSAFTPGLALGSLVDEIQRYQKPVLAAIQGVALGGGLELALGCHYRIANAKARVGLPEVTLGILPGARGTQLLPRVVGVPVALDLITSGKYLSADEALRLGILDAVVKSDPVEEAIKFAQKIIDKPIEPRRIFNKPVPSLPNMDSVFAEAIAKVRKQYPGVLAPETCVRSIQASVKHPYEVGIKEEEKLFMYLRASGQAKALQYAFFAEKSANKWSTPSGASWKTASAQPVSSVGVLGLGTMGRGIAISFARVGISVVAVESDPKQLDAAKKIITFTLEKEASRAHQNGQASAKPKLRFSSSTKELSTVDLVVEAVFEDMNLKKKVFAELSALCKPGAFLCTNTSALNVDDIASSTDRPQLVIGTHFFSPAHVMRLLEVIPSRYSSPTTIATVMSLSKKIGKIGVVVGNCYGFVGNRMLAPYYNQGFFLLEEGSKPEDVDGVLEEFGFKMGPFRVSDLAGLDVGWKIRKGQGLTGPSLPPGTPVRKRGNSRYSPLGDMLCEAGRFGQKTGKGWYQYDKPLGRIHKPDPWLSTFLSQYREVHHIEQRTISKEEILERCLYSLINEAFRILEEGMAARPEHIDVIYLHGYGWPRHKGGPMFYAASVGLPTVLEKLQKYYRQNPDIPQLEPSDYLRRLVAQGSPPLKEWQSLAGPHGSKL
T2 sequence (P07896 whole entry E123A): as the sequence (P07896 whole entry) above, with E123A counted along it
T3 sequence (P07896 260-722): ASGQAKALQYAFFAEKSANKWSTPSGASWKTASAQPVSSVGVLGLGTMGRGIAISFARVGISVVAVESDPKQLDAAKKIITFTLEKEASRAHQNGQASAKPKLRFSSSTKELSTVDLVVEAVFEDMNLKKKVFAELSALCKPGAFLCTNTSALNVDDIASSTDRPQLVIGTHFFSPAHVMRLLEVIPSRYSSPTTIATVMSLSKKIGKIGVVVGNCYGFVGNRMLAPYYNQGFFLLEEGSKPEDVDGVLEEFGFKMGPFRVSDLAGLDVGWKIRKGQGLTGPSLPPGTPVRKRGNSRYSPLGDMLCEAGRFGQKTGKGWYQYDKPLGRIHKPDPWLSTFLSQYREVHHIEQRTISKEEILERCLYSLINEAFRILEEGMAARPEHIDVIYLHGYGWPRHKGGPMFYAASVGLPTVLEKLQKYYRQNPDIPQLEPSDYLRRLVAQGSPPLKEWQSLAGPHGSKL

C/C=C/C(=O)SCCNC(=O)CCNC(=O)[C@H](O)C(C)(C)COP(=O)(O)OP(=O)(O)OC[C@H]1O[C@@H](n2cnc3c(N)ncnc32)[C@H](O)[C@@H]1OP(=O)(O)O [2E‐butenoyl‐CoA]
Kd (RnMFE1 [1]): 1.9 ± 0.1 µM

NC(=O)C1=CN([C@@H]2O[C@H](COP(=O)(O)OP(=O)(O)OC[C@H]3O[C@@H](n4cnc5c(N)ncnc54)[C@H](O)[C@@H]3O)[C@@H](O)[C@H]2O)C=CC1 [NADH]
Kd (RnMFE1 [2]): 5 µM
Kd (RnMFE1 [3]): 7.5 µM
Kd (BCDE [4]): 5.7 µM
Kd (HsHAD [5]): 7 µM

NC(=O)c1ccc[n+]([C@@H]2O[C@H](COP(=O)(O)OP(=O)(O)OC[C@H]3O[C@@H](n4cnc5c(N)ncnc54)[C@H](O)[C@@H]3O)[C@@H](O)[C@H]2O)c1 [NAD^+]
Kd (HsHAD [6]): 6 µM
Kd (RnMFE1 [7]): 7.6 µM
Kd (RnMFE1 [8]): 8 µM
Kd (BCDE [9]): 7.5 µM
